According to the NIST ThermoML archive (doi:10.1021/je3007953):

Experiments:
[1] = molar heat capacity at constant pressure; xn = mol fraction of the nth substance listed; conditions: Liquid, Small sample (50 mg) DSC
[2] = xn = mol fraction of the nth substance listed; conditions: Liquid, Vibrating tube method

C[n+]1ccn(CCO)c1.[Cl-] [1-(2-hydroxyethyl)-3-methyl-1H-imidazolium chloride] + O
Conditions | mass density, x1 = 0.0122 [kg/m3] | mass density, x1 = 0.0453 [kg/m3] | mass density, x1 = 0.0997 [kg/m3] | mass density, x1 = 0.2054 [kg/m3] | mass density, x1 = 0.3071 [kg/m3] | molar heat capacity at constant pressure, x1 = 0.0122 [J/K/mol] | molar heat capacity at constant pressure, x1 = 0.0453 [J/K/mol] | molar heat capacity at constant pressure, x1 = 0.0997 [J/K/mol] | molar heat capacity at constant pressure, x1 = 0.2054 [J/K/mol] | molar heat capacity at constant pressure, x1 = 0.3071 [J/K/mol]
[1], 298.15 K | – | – | – | – | – | 75.34 | 79.99 | 88.41 | 107.22 | 124.59
[1], 303.15 K | – | – | – | – | – | 75.7 | 80.58 | 89.25 | 108.22 | 125.97
[1], 308.15 K | – | – | – | – | – | 76.07 | 81.14 | 90.1 | 109.32 | 127.4
[1], 313.15 K | – | – | – | – | – | 76.41 | 81.68 | 90.91 | 110.27 | 128.97
[1], 318.15 K | – | – | – | – | – | 76.86 | 82.39 | 91.91 | 111.66 | 130.65
[1], 323.15 K | – | – | – | – | – | 77.24 | 83.01 | 92.79 | 112.94 | 132.15
[1], 328.15 K | – | – | – | – | – | 77.61 | 83.57 | 93.66 | 114.19 | 133.71
[1], 333.15 K | – | – | – | – | – | 77.97 | 84.16 | 94.54 | 115.52 | 135.39
[1], 338.15 K | – | – | – | – | – | 78.39 | 84.85 | 95.51 | 117 | 137.33
[1], 343.15 K | – | – | – | – | – | 78.9 | 85.64 | 96.65 | 118.67 | 139.45
[1], 348.15 K | – | – | – | – | – | 79.24 | 86.2 | 97.49 | 120.06 | 141.39
[1], 353.15 K | – | – | – | – | – | 79.67 | 86.89 | 98.46 | 121.68 | 143.57
[2], 298.15 K | 1016.85 | 1059.73 | 1107.52 | 1136.95 | 1187.93 | – | – | – | – | –
[2], 303.15 K | 1015.23 | 1057.69 | 1105.14 | 1134.43 | 1185.25 | – | – | – | – | –
[2], 308.15 K | 1013.43 | 1055.55 | 1102.71 | 1131.88 | 1182.56 | – | – | – | – | –
[2], 313.15 K | 1011.46 | 1053.3 | 1100.22 | 1129.28 | 1179.87 | – | – | – | – | –
[2], 318.15 K | 1009.27 | 1050.94 | 1097.68 | 1126.66 | 1177.16 | – | – | – | – | –
[2], 323.15 K | 1005.9 | 1048.46 | 1095.08 | 1123.99 | 1174.45 | – | – | – | – | –
